Laboratory results: ChEMBL document CHEMBL2074225, “Tissue distribution and chemical induction of multiple drug resistance genes in rats” (Drug Metab Dispos, 2002)

Key:
[1] = target: Multidrug resistance protein 1a (Rattus norvegicus) (UniProt Q6PSM0); test: (§1) TP_TRANSPORTER: Branched DNA assay in vivo SD rat, liver; assay type: functional, organism-based; conditions: Sprague-Dawley
[2] = target: T1, ATP-dependent translocase ABCB1 (Rattus norvegicus, UniProt P43245); test: as §1; assay type: functional, organism-based, Sprague-Dawley
[3] = target: T1, ATP-dependent translocase ABCB1; test: TP_TRANSPORTER: Branched DNA assay in vivo SD rat, kidney; assay type: functional, organism-based, Sprague-Dawley

T1 sequence (P43245 whole entry): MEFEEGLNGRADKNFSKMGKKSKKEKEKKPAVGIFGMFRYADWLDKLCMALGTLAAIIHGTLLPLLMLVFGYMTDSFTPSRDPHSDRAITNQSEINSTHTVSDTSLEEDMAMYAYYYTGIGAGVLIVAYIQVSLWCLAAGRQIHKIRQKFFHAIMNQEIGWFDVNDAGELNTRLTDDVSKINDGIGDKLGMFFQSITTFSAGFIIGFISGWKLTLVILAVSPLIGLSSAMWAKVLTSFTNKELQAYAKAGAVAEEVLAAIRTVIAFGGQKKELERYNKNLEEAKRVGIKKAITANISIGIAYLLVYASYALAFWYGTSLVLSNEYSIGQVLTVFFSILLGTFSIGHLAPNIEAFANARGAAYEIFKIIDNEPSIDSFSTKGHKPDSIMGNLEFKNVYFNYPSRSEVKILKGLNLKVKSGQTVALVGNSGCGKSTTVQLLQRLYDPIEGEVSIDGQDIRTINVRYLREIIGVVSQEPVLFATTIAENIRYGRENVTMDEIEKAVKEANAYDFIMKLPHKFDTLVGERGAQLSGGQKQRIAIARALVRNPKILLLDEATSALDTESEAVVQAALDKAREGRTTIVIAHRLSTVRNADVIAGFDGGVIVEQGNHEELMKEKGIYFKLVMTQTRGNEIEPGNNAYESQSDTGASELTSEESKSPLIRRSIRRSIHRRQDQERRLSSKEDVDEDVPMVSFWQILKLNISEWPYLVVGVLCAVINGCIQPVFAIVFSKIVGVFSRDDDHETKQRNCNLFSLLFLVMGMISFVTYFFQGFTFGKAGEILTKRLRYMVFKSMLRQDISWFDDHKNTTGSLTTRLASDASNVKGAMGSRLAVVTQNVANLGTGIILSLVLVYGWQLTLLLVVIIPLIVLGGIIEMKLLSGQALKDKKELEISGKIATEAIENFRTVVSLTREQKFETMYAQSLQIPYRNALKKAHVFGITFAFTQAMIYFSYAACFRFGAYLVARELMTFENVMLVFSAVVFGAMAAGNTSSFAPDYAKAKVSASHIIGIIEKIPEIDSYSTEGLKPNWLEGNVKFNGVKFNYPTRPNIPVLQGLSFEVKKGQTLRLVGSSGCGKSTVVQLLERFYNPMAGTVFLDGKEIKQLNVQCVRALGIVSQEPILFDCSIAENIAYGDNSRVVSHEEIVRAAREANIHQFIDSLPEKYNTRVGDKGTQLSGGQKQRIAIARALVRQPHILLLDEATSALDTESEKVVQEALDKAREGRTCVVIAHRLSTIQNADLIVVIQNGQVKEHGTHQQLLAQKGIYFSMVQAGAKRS
Multidrug resistance protein 1a (Rattus norvegicus), sequence (Q6PSM0 as listed by the source): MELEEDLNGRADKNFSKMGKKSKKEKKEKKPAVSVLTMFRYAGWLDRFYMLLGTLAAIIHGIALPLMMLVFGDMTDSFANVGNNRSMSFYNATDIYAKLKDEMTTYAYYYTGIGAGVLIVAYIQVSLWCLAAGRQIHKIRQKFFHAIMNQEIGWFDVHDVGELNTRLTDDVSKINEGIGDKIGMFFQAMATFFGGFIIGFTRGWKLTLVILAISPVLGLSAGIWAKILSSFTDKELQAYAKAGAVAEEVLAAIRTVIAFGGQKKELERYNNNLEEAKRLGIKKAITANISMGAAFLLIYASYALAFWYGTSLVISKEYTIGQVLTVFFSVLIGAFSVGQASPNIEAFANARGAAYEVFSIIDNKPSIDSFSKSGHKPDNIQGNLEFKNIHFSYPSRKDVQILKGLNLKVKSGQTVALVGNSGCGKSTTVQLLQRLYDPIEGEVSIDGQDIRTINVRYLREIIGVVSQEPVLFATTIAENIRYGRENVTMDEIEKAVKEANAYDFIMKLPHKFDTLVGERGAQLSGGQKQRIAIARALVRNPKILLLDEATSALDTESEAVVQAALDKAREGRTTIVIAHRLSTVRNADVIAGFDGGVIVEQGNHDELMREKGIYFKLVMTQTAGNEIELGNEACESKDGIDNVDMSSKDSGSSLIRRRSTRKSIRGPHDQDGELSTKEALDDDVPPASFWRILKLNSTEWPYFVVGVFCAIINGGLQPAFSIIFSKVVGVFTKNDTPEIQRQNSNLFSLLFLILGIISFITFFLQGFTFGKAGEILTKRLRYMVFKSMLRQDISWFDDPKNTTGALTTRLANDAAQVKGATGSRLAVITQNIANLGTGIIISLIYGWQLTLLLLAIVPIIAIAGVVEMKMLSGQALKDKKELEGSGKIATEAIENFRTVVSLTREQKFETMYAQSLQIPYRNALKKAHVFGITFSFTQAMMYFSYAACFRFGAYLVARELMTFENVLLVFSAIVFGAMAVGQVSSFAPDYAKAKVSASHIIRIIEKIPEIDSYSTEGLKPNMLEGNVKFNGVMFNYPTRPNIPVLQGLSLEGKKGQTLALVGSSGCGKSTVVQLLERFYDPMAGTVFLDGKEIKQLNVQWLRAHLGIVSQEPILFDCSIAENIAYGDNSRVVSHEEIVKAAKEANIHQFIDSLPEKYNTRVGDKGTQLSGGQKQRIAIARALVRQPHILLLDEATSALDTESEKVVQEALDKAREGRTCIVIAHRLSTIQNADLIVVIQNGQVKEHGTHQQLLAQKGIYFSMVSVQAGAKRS

| Compound | Activity [1] | Activity [2] | Activity [3] |
| --- | --- | --- | --- |
| C=CCSCC=C | inducer [+] | – | – |
| Clc1ccc(-c2cc(Cl)c(Cl)cc2Cl)c(Cl)c1 [POLYCHLORINATED BIPHENYL 99] | – | inducer [+] | – |
| CN(N=O)C(=O)N[C@@H](C=O)[C@@H](O)[C@H](O)[C@H](O)CO [STREPTOZOCIN] | – | inducer [+] | inducer [+] |

Further lines, results first:

| Activity [1] | Activity [2] | Activity [3] | Compound |
| --- | --- | --- | --- |
| inducer [+] | – | – | Cc1c(-c2cnccn2)ssc1=S |
| inducer [+] | – | – | NNC(=O)c1ccncc1 |
| – | inducer [+] | – | OCc1c[nH]c2ccccc12 [INDOLE-3-CARBINOL] |
